Patent publication US20060281687A1, “Cyclin groove inhibitors” (priority 2003, published 2006)
Non-standard residues stand in square brackets, D forms with d. Residues, ends and D or L forms follow the SMILES beside them. *: point of attachment. X14 = O=C(c1ccc(-n2cncn2)c([N+](=O)[O-])c1)*; X3 = Cc1nc(C(=O)*)nn1-c1ccc([N+](=O)[O-])cc1; X2 = CC(C)n1c(C(F)(F)F)nc2cc(C(=O)*)ccc21; X6 = O=C(COn1c(-c2ccccc2)nc2ccc(Cl)cc21)*; X10 = O=C(c1c(-c2ccccc2)nc2cccc(Cl)n12)*; X4 = Cc1nc(C(=O)*)nn1-c1cccc(C(F)(F)F)c1; X8 = COc1cc(-n2nc(C(=O)*)nc2C)c(Cl)cc1Cl; X11 = Cc1nc(C(=O)*)nn1-c1cc(Cl)cc(Cl)c1; Phe(4-F) = N[C@@H](Cc1ccc(F)cc1)C(=O)O; X13 = Cc1nc(C(=O)*)nn1-c1ccc(Cl)cc1Cl; X9 = O=C(COn1c(-c2ccccc2)nc2ccccc21)*; X5 = Cc1nc(C(=O)*)nn1-c1ccc(Cl)cc1; X7 = O=C(c1ccc2nc(-n3cccc3)sc2c1)*; X1 = Cc1nc(C(=O)*)nn1-c1ccc(F)cc1; X12 = O=C(c1ccc(N2CCNC2=S)cc1)*

How the values were obtained:
CDK2/cyclin A [1] = molecular target: T1, CDK2/cyclin A (Homo sapiens, UniProt P20248); experiment: Functional kinase assay (phosphorylation of GST-pRb(773-928)); type: biochemical; settings: recombinant human CDK2/cyclin A; GST-pRb(773-928) substrate; 100 μM ATP; 30 min at 30° C.; read-out: Inhibitory activity IC50 ± SD, Functional kinase assay
Experimental: CDK2/cyclin A kinase assays (phosphorylation of natural retinoblastoma protein (pRb)) were performed in 96-well plates using recombinant proteins. To each well were added: 10 μL assay buffer (50 mM HEPES pH 7.4, 20 mM β-glycerophosphate, 5 mM EGTA, 2 mM dithiothreitol, 1 mM NaVO3, and 20 mM MgCl2), 5 μL GST-pRb(773-928) substrate stock solution,10 μL test compound solution, 10 μL (2-5 μg protein) of purified recombinant human CDK2/cyclin A stock. The reaction was initiated by addition of 10 μL/well Mg/ATP mix (15 mM MgCl2, 100 μM ATP with 30-50 kBq per well of [γ-^32P]-ATP) and mixtures were incubated with shaking for 30 min at 30° C. Reactions were stopped on ice, followed by addition of 5 μL/well of glutathione-Sepharose 4B (Amersham Biosciences) and further incubation with shaking for 30 min at room temperature. The mixtures were then filtered on Whatman GF/C filterplates and washed 4 times with 0.2 mL/well of 50 mM HEPES containing 1 mM ATP. Plates were dried, sealed, and scintillant (Microscint 40) was added. Incorporated radioactivity was measured using a scintillation counter (TopCount, Packard Instruments, Pangbourne, Berks, UK). Half-maximal inhibition (IC50) was calculated from dose—response curves.

CDK2/cyclin A [2] = molecular target: T1, CDK2/cyclin A; experiment: Competitive binding assay (fluorescence polarisation, fluorescein tracer peptide); settings: purified recombinant human CDK2/cyclin A; tracer fluorescein-Ahx-His-Ala-Lys-Arg-Arg-Leu-Ile-Phe-NH2; 1 h room temperature; read-out: Inhibitory activity IC50 ± SD, Competitive binding assay
Experimental: Competitive Binding Assay
This assay was performed using half-area black 96-well microtitre plates. To each well were added: 10 μL assay buffer (25 mM HEPES pH 7, 10 mM NaCl, 0.01% Nonidet P-40, 1 mM dithiothreitol), 10 μL test compound solution (in 10% aq DMSO), 10 μL CDK2/cyclin A (ca. 2 μg purified recombinant human kinase complex) in assay buffer, and 10 μL tracer peptide solution (150 nM fluorescein-Ahx-His-Ala-Lys-Arg-Arg-Leu-Ile-Phe-NH2; refer McInnes, C. et al., 2003, Curr. Med. Chem. Anti-Cancer Agents, 3, 57; Atkinson, G. E. et al., 2002, Bioorg. Med. Chem. Lett., 12, 2501) in assay buffer. After incubation with shaking for 1 h at room temperature, fluorescence polarisation at 485-520 nm was measured using a Tecan Ultra reader. Half-maximal inhibition (IC50) was calculated from dose—response curves.

| SMILES | IC50 (CDK2/cyclin A [1]) [µM] | IC50 (CDK2/cyclin A [2]) [µM] |
| --- | --- | --- |
| CC(C)C[C@H](NC(=O)[C@H](CCCNC(=N)N)NC(=O)c1c(-c2ccccc2)nc2cccc(Cl)n12)C(=O)N[C@@H](CC(N)=O)C(=O)N[C@@H](Cc1ccc(F)cc1)C(N)=O [Compound 1] (X10-RLN[Phe(4-F)]-NH2) | 53 ± 25 | 12 ± 2 |
| COc1cc(-n2nc(C(=O)N[C@@H](CCCNC(=N)N)C(=O)N[C@@H](CC(C)C)C(=O)N[C@@H](CC(N)=O)C(=O)N[C@@H](Cc3ccc(F)cc3)C(N)=O)nc2C)c(Cl)cc1Cl [Compound 2] (X8-RLN[Phe(4-F)]-NH2) | 11 ± 7 | 0.93 ± 0.05 |
| Cc1nc(C(=O)N[C@@H](CCCNC(=N)N)C(=O)N[C@@H](CC(C)C)C(=O)N[C@@H](CC(N)=O)C(=O)N[C@@H](Cc2ccc(F)cc2)C(N)=O)nn1-c1ccc(Cl)cc1 [Compound 3] (X5-RLN[Phe(4-F)]-NH2) | 4.3 ± 2.1 | 4.1 ± 1.3 |
| Cc1nc(C(=O)N[C@@H](CCCNC(=N)N)C(=O)N[C@@H](CC(C)C)C(=O)N[C@@H](CC(N)=O)C(=O)N[C@@H](Cc2ccc(F)cc2)C(N)=O)nn1-c1ccc(Cl)cc1Cl [Compound 4] (X13-RLN[Phe(4-F)]-NH2) | 6.4 ± 0.3 | 3.6 ± 0.6 |
| CC(C)C[C@H](NC(=O)[C@H](CCCNC(=N)N)NC(=O)c1ccc(N2CCNC2=S)cc1)C(=O)N[C@@H](CC(N)=O)C(=O)N[C@@H](Cc1ccc(F)cc1)C(N)=O [Compound 5] (X12-RLN[Phe(4-F)]-NH2) | 19 ± 3 | 5.8 ± 1.6 |
| Cc1nc(C(=O)N[C@@H](CCCNC(=N)N)C(=O)N[C@@H](CC(C)C)C(=O)N[C@@H](CC(N)=O)C(=O)N[C@@H](Cc2ccc(F)cc2)C(N)=O)nn1-c1ccc(F)cc1 [Compound 6] (X1-RLN[Phe(4-F)]-NH2) | 4.4 ± 0.8 | 6.1 ± 1.2 |
| Cc1nc(C(=O)N[C@@H](CCCNC(=N)N)C(=O)N[C@@H](CC(C)C)C(=O)N[C@@H](CC(N)=O)C(=O)N[C@@H](Cc2ccc(F)cc2)C(N)=O)nn1-c1ccc([N+](=O)[O-])cc1 [Compound 7] (X3-RLN[Phe(4-F)]-NH2) | 5.4 ± 0.9 | 6.4 ± 1.8 |
| CC(C)C[C@H](NC(=O)[C@H](CCCNC(=N)N)NC(=O)c1ccc(-n2cncn2)c([N+](=O)[O-])c1)C(=O)N[C@@H](CC(N)=O)C(=O)N[C@@H](Cc1ccc(F)cc1)C(N)=O [Compound 8] (X14-RLN[Phe(4-F)]-NH2) | 26 ± 5 | 28 ± 4 |
| CC(C)C[C@H](NC(=O)[C@H](CCCNC(=N)N)NC(=O)COn1c(-c2ccccc2)nc2ccccc21)C(=O)N[C@@H](CC(N)=O)C(=O)N[C@@H](Cc1ccc(F)cc1)C(N)=O [Compound 9] (X9-RLN[Phe(4-F)]-NH2) | 37 ± 6 | 15 ± 2 |
| Cc1nc(C(=O)N[C@@H](CCCNC(=N)N)C(=O)N[C@@H](CC(C)C)C(=O)N[C@@H](CC(N)=O)C(=O)N[C@@H](Cc2ccc(F)cc2)C(N)=O)nn1-c1cc(Cl)cc(Cl)c1 [Compound 10] (X11-RLN[Phe(4-F)]-NH2) | 3.7 ± 0.2 | 2.1 ± 0.2 |
| CC(C)C[C@H](NC(=O)[C@H](CCCNC(=N)N)NC(=O)COn1c(-c2ccccc2)nc2ccc(Cl)cc21)C(=O)N[C@@H](CC(N)=O)C(=O)N[C@@H](Cc1ccc(F)cc1)C(N)=O [Compound 11] (X6-RLN[Phe(4-F)]-NH2) | 30 ± 16 | 12 ± 2 |
| CC(C)C[C@H](NC(=O)[C@H](CCCNC(=N)N)NC(=O)c1ccc2nc(-n3cccc3)sc2c1)C(=O)N[C@@H](CC(N)=O)C(=O)N[C@@H](Cc1ccc(F)cc1)C(N)=O [Compound 12] (X7-RLN[Phe(4-F)]-NH2) | 15.3 ± 3.1 | 4.8 ± 0.4 |

Results, then the compound that gave them:

| IC50 (CDK2/cyclin A [1]) [µM] | IC50 (CDK2/cyclin A [2]) [µM] | SMILES |
| --- | --- | --- |
| 21.1 ± 7 | 2.6 ± 0.4 | CC(C)C[C@H](NC(=O)[C@H](CCCNC(=N)N)NC(=O)c1ccc2c(c1)nc(C(F)(F)F)n2C(C)C)C(=O)N[C@@H](CC(N)=O)C(=O)N[C@@H](Cc1ccc(F)cc1)C(N)=O [Compound 13] (X2-RLN[Phe(4-F)]-NH2) |
| 3.65 ± 0.92 | 2.8 ± 0.42 | Cc1nc(C(=O)N[C@@H](CCCNC(=N)N)C(=O)N[C@@H](CC(C)C)C(=O)N[C@@H](CC(N)=O)C(=O)N[C@@H](Cc2ccc(F)cc2)C(N)=O)nn1-c1cccc(C(F)(F)F)c1 [Compound 14] (X4-RLN[Phe(4-F)]-NH2) |
| 87 ± 14 | 219 ± 10 | Cc1cc(NC(=O)C2CCCCC2C(=O)N[C@@H](CC(C)C)C(=O)N[C@@H](CC(N)=O)C(=O)N[C@@H](Cc2ccc(F)cc2)C(N)=O)no1 (stereo partly shown) [Compound 15] |
| 21.9 ± 4.9 | 56.9 ± 1.9 | CC(C)C[C@H](NC(=O)[C@H](CCCNC(=N)N)NC(=O)[C@@H](N)CCCNC(=N)N)C(=O)Nc1cccc(Oc2ccccc2)c1 [Compound 24] |
| 29.8 ± 12 | 35 ± 2.03 | CC(C)C[C@H](NC(=O)[C@H](CCCNC(=N)N)NC(=O)[C@@H](N)CCCNC(=N)N)C(=O)Nc1cccc(OCc2ccccc2)c1 [Compound 25] |
| 8.81 ± 1.08 | 4.7 ± 0.7 | CC(C)C[C@H](NC(=O)[C@H](CCCNC(=N)N)NC(=O)[C@@H](N)CCCNC(=N)N)C(=O)NCc1cccc(Oc2ccccc2)c1 [Compound 26] |
| 8.55 ± 2.11 | 22.7 ± 2.72 | CC(C)C[C@@H](CNc1cccc(Oc2ccccc2)c1)NC(=O)[C@H](CCCNC(=N)N)NC(=O)[C@@H](N)CCCNC(=N)N [Compound 29] |
| 8.37 ± 4.24 | 58.2 ± 3.82 | CC(C)C[C@@H](CNc1cccc(OCc2ccccc2)c1)NC(=O)[C@H](CCCNC(=N)N)NC(=O)[C@@H](N)CCCNC(=N)N [Compound 30] |
